We go through two compounds from patent publication US20180153886A1, “USE OF TR[…] PREPARATION OF DRUGS FOR PREVENTING AND TREATING LIVER DISEASES” (priority 2015, published 2018).

For series [1], the system named is liver failure patients. Nature of the series: Single-center cohort clinical trial, trimetazidine (TMZ) vs DCA control, liver function indicators ALT/AST. The series is classed as in vivo, human. The conditions noted are these: after 5 days of treatment, FIG. 2. An excerpt:
Evaluate if trimetazidine is capable of improving the liver function of patients with hepatic failure.
The single-center cohort study was adopted as the clinical trial method.
In accordance with relevant references and the results of previous trails, the number of cases shall be no less than 50. Taking into account the number of loss to follow up and possible drop-out (to be controlled around 10%), 60 cases are required to be selected (30 cases for the trial group and 30 cases for the control group).
All serious hepatitis patients enrolled between Aug. 19, 2014 and […] were put in the control group; and all those enrolled between December 9 and the application date were in the trial group.
2. Exclusion Criteria • Patients under 18 or over 70 years old; • patients diagnosed with shock liver (ischemic liver disease); • patients with liver failure in pregnance or HELLP syndrome; • patients with liver failure secondary to malignant tumor in the liver; • patients with refractory hypotension • patients with septic shock; • patients about to receive liver transplant (within 8 hours); • patients allergic to trimetazidine drug; • patients […] of trimetazidine drug; • abuser of drugs and/or alcohol; • pregnant or lactation women; • patients with recent myocardial infarct (within half a year); • patients with serious renal inadequacy.
2. Control group: Diisopropylamine Dichloroacetate (DCA) (80 mg/D) for the control group in this trial, provided by Dandong Yichuang Pharmaceutical Co., Ltd, for a 4-week course of treatment.
3. […] HBV-related liver failure patients were also treated with lamivudine.
1. Alanine aminotransferase (ALT), tested by chromatometry, with products provided by Roche Diagnostics (Shanghai) Ltd.
2. Aspartate transaminase (AST), tested by chromatometry, with products provided by Roche Diagnostics (Shanghai) Ltd.

For series [2], the system named is liver failure patients. Nature of the series: Clinical trial involving 165 cases of liver failure, TMZ vs traditional therapeutic approach (general treatment). The series is classed as in vivo, human.
Series [3] concerns patients with liver failure / serious hepatitis. Kind of series: Clinical cases: individual patients given oral TMZ on top of combined treatment. The series is classed as in vivo, human. The text has this: Case 1: The patient had past positive HBsAg for over 20 years, during which they took multiple reexaminations of liver function and, as the results of all color ultrasound examinations were within normal range, they were not given any special treatment. Three months before, after catching cold and overwork, they developed abdominal distension and yellow urine, and was admitted to hospital following aggravation of the condition over 6 days. On admission, they were complicated with massive seroperitoneum and serious xanthochromia throughout the skin and mucosa of their whole body, feeling serious nausea, anorexia and feebleness.
Case 2: had had yellow urine for 25 days and dry mouth and bitter taste in mouth for 10 days before they came to the First Affiliated Hospital of Zhengzhou University. […] If they had been treated with the original approach, it would probably have taken two months before they could be discharged from hospital.
Case 3: had past positive HBsAg for 8 years, without regular treatment or periodic reexamination of relevant indicators. […] They took orally some “stomach medicine” (specific medicine not known) with poor effect. After the aforesaid symptoms aggravated for half a month, with urine turning as yellow as strong tea water, they were admitted to the First Affiliated Hospital of Zhengzhou University on Jan. 21, 2015. […] In merely 12 days, the patient achieved decrease of transaminase by dozens of times, relief from the critical condition, alleviated hepatocyte inflammatory responses and a favorable condition for liver cells, and greatly shortened length of hospitalization.
Case 4: […] They felt abdominal distension and nausea, accompanied with hydroncus in lower limbs, when they got tired half a month ago. For further treatment, they were admitted to the First Affiliated Hospital of Zhengzhou University on Jan. 13, 2015. Color ultrasound examination of abdomen detected diffuse changes of echo patterns of liver, cholecystolithiasis and cholecystitis. […] The patient's liver enzyme decreased to normal level after a short period, meeting the requirements for a surgical operation. Following the operation, their abdominal pain disappeared, with liver enzyme back to normal level and improved appetite. Their quality of life improves now without any discomfort.
Case 5: had past positive HBsAg for over 10 years, with HBsAg (+), HBeAg (+) and HBcAb (+), and had atrial fibrillation over 5 years, during which they orally took traditional Chinese medicine intermittently, but without regular treatment. They complained of feebleness, nausea, dry mouth and bitter taste, and anorexia for 6 days, and was hospitalized on Jan. 31, 2015. After admission, they had ALT 1881 u/L, AST 699 u/L, and prothrombin time activity (PTA) at 26%. The patient was extremely weak, in very poor spirits, with very poor appetite. A notice of critical illness diagnosis was given. […] The patient achieved a rapid decrease of transaminase and obvious improvement of liver synthesis function, and was safe from the critical condition. They continued to take the medicine till maturity of the treatment course, to improve the hepatocyte microcirculation and excretion of bilirubin. The patient soon recovered and left hospital.

For series [4] the following is noted: in vivo; listed as trimetazidine, dihydrochloride; cited from earlier work.
The mark [5] stands for this setting: Case 5, one week plus another 5 days of TMZ.

Take `COc1ccc(CN2CCNCC2)c(OC)c1OC.Cl.Cl` [TMZ, 1-[2,3,4-trimethoxybenzyl] piperazine dihydrochloride]: the “ALT decrease (k, mathematical model analysis)” value in the series on liver failure patients [1] was determined as 259.4. The “AST decrease (k, mathematical model analysis)” value in the series with liver failure patients [1] is 362.53. Besides, the 30-day immortality rate entry with liver failure patients [2] (TMZ 20 mg tablet orally 3 times a day, 4 weeks, traditional therapeutic approach 44%, FIG. 5) is “approximately 18%”. Further, the 90-day immortality rate in the series with liver failure patients [2] (TMZ 20 mg tablet orally 3 times a day, 4 weeks, traditional therapeutic approach 68%, FIG. 5) stood at 35%. In addition, the “decrease rate of alanine aminotransferase and aspartate transaminase” value with liver failure patients [2] (laboratory test indicators, FIG. 3) is listed as “significantly raise the decrease rate”. Moreover, the “serious adverse reaction during the clinical trial” value in the series on liver failure patients [2] (liver failure patients) is recorded as “no serious adverse reaction occurred”. The “hepatic glucose metabolism (PET-CT)” value in the series with liver failure patients [2] (one liver failure patient, before vs after taking TMZ, FIG. 4) is “remarkably improved”. For the same compound, the AST worked out at 68 u/L in series [3] (Case 1, 12 days after start of TMZ, on admission AST 303 u/L); 52 u/L in series [3] (Case 2, oral TMZ for 20 days, on admission AST 484 u/L); 85 u/L in series [3] (Case 3, reexamination February 5, on admission AST 1368 u/L); 79 u/L in series [3] (Case 4, oral TMZ for 13 days, on admission AST 663 u/L); 77 u/L in series [3] (Case 5, one week after start of oral TMZ, after admission AST 699 u/L); 226 u/L in series [3] (setting [5]). Besides, the ALT came out at 41 u/L in series [3] (Case 1, HBsAg positive, 12 days after start of TMZ 1 tablet 3 times a day, on admission ALT 270 u/L); 95 u/L in series [3] (Case 2, serious drug-induced hepatitis, oral TMZ for 20 days, on admission ALT 983 u/L); 76 u/L in series [3] (Case 3, acute-on-chronic liver failure, admitted Jan. 21, 2015, reexamination February 5, on admission ALT 1386 u/L); 66 u/L in series [3] (Case 4, HBsAg positive, oral TMZ for 13 days, on admission ALT 599 u/L); 255 u/L in series [3] (Case 5, one week after start of oral TMZ, after admission ALT 1881 u/L); 117 u/L in series [3] (setting [5]). In addition, the total bilirubin in series [3] (Case 2, oral TMZ for 20 days, on admission 401.9 umol/L) was 130 µmol/L. Besides, the “prothrombin time activity (PTA)” value is listed as 57.8% in series [3] (Case 3, reexamination February 5, on admission 27.4%); 48% in series [3] (Case 5, one week after start of oral TMZ, after admission 26%); 50% in series [3] (setting [5]). The elimination half-life entry in series [4] is given as “approximately 6 hours”.
Regarding Diisopropylamine Dichloroacetate [DCA], in the series on liver failure patients [1], the “ALT decrease (k, mathematical model analysis)” value was found to be 67.325 and the “AST decrease (k, mathematical model analysis)” value was 142.77.
